# In patent publication US7109193B2, “Tricyclic diazepines tocolytic oxytocin receptor antagonists” (Wyeth, priority 2001, dated 2006):
# Key:
# [1] = biological target: T1, human vasopressin V2 receptor subtype (Homo sapiens, UniProt P30518); experiment: Vasopressin binding in Chinese Hamster Ovary cell membranes expressing human vasopressin V2 subtype receptors; conditions: 100 nM, CHO cell membranes, [3H]arginine vasopressin, values without parentheses
# T1 construct: host or cells: CHO cells (pZeoSV vector)
# T1 sequence (P30518 whole entry): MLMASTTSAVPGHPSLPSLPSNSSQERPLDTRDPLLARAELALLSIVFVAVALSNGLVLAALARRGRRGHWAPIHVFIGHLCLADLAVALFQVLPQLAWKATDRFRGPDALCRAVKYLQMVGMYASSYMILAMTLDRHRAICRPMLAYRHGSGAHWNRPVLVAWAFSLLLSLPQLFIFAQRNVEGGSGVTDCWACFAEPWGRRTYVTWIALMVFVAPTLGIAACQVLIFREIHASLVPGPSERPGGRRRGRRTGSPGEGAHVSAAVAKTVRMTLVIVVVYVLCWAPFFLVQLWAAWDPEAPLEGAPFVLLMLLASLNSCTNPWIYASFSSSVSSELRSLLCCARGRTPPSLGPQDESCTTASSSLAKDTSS
# How it was run: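 Radioligand displacement on membranes from CHO cells stably expressing human V2 receptor, 25 to 50 μg protein/well, in 50 mM Tris-HCl pH 7.4 with MgCl2, BSA and protease inhibitors. [^3H]arginine vasopressin (8 nM working solution) incubated 60 min at room temperature; bound label measured by filtration and scintillation counting.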
inhibition at 0.1 µM [1],melting point,SMILES,V2 % inhibition @ 100 nM [1]
22%,55 to 64 °C,"Cc1cc(C(=O)N2Cc3ccc(C(=O)N(CCCN(C)C)CCCN(C)C)n3Cc3ccccc32)ccc1-c1ccccc1C(F)(F)F [Example 3, 10-[(2-Methyl-2′-trifluoromethyl-[1,1′-biphenyl]-4-yl)-carbonyl]-10,11-dihydro-5H-pyrrolo[2,1-c][1,4]benzodiazepine-3-carboxylic acid bis-(3-dimethylamino-propyl)-amide]",
,,"Cc1cc(C(=O)N2Cc3ccc(C(=O)NCCCN(C)C)n3Cc3ccccc32)ccc1-c1ccccc1C(F)(F)F [Example 84, N-[3-(Dimethylamino)propyl]-10-{[2-methyl-2′-(trifluoromethyl)[1,1′-biphenyl]-4-yl]carbonyl}-10,11-dihydro-5H-pyrrolo[2,1-c][1 .4]benzodiazepine-3-carboxamide]",11%
,,"COc1ccccc1-c1ccc(C(=O)N2Cc3ccc(C(=O)N4CCC[C@H]4CN4CCCC4)n3Cc3ccccc32)cc1 [Example 265, {10-[(2′-Methoxy[1,1′-biphenyl]-4-yl)carbonyl]-10,11-dihydro-5H-pyrrolo[2,1-c][1,4]benzodiazepin-3-yl}[(2S)-2-(1-pyrrolidinylmethyl)pyrrolidinyl]methanone]",10%
3%,,"COc1cc(C(=O)N2Cc3ccc(C(=O)N4CCC(N5CCCC5)CC4)n3Cc3ccccc32)ccc1-c1cccc2ccccc12 [Example 144, {10-[3-Methoxy-4-(1-naphthyl)benzoyl]-10,11-dihydro-5H-pyrrolo[2,1-c][1,4]benzodiazepin-3-yl}[4-(1-pyrrolidinyl)-1-piperidinyl]methanone]",
